Consider two compounds from patent US20220079855A1, “GINGSENG-BASED COSMETIC COMPOSITION” (L'OREAL, priority 2018, published 2022).

This assay has as its system stratum corneum of viable human skin (abdominal or breast reduction plastic surgery). Description: Desquamating activity: decrease in cohesion of the stratum corneum, histological score on excised human skin maintained under survival conditions. The assay is classed as cell-based. The following applies: score 0-4; for Score 2: (mean ± sd, n = 6): Table 2, applied D0 and D1, analysed D2; for Score (mean ± sd, n = 6): Table 3 (white ginseng study). On the procedure:
The study aims to detect the desquamating potential of the combination of active agents according to the invention in simplex solution by observation of the cohesion of the stratum corneum.
The keratolytic effect on excised skin maintained under survival conditions […] was evaluated. The study was carried out on viable human skin resulting from abdominal or breast reduction plastic surgery (6 donors). These skin fragments were placed in inserts, comprising a porous membrane ([…]), themselves positioned on culture wells containing a culture medium as described in Boisnic et al., Journal of Cosmetics and laser therapy, 2010:12:25-31.
The protocol consists in applying the test solutions to skin samples maintained under survival conditions. The products tested are applied in a proportion of 15 μl per 1 cm^2 sample and are not rinsed off. Application is carried out twice, at D0 and then, 24 hours later, at D1. The morphology of the stratum corneum is analysed 48 hours after the first application, at D2, on a biopsy.
The solutions applied are the following: • compound A (plant active agent according to the invention) alone at 0.1% and 0.5% by weight of active material in water, and • compound B alone at 0.3% by weight in water • combination of A at 0.1% and B at 0.3% by weight in water • combination of A at 0.5% and B at 0.3% by weight in water.
By way of comparison, no solution is applied to a sample, referred to as a control sample, and a solution of glycolic acid at 30% by weight in water is applied to another sample. 6 samples were used for each of the tests (controls, compound A and compound B and combinations of A and B).
The histological analysis of the horny layer is carried out on a skin section after staining with hemalaun-eosin (magnification 400). The decrease in the cohesion of the stratum corneum is expressed in the form of a score: • score 0: absence of modification • score 1: slight decrease • score 2: moderate decrease • score 3: large decrease • score 4: very large decrease with exfoliation
A paired Student test (p<0.05) was carried out in order to evaluate the significance of the difference with respect to the control.
The protocol described in Example 2 was reproduced by considering a plant active agent not in accordance with the invention, namely white ginseng which is devoid of ginsenoside Rg3. This active agent considered is the product Ginseng ES, distributed by the company Greentech.

On to `CCCCCCCC(=O)c1ccc(O)c(C(=O)O)c1` [Compound B, 5-n-Octanoylsalicylic acid], for which, under “Compound B at 0.3% in H2O”, the “Score 2: (mean ± sd, n = 6)” value came to 2.14 ± 0.52 and the “Score (mean ± sd, n = 6)” value came to 1.75 ± 0.19.
On to `O=C(O)CO` [Glycolic acid, glycolic acid], for which, for the setting “Glycolic acid at 30% in H2O”, the “Score 2: (mean ± sd, n = 6)” value was 3.10 ± 0.12 and the “Score (mean ± sd, n = 6)” value amounted to 2.14 ± 0.41.
